{"source": "patent US9670480B2", "about": "“Genome-wide construction of Schizosaccharomyces pombe heterozygous deletion mutants containing gene-specific barcodes by the methods of 4-round serial or block PCR, or total gene synthesis thereof” (Korea Research Institute of Bioscience and Biotechnology, priority 2008, dated 2017)", "key": {"[1]": {"test_system": "erg1 heterozygous deletion mutant", "assay": "Reconfirmation of GeneChip result on YES agar plates containing terbinafine", "assay_type": "cell-based, Schizosaccharomyces pombe", "procedure": "(§1) Since the drug's modes of action detected with the GeneChip might include the false positive signals resulting experiment errors and false chip analysis, all the top 10 drug's modes of action, except non-specific ribosome-related genes, were cultured again on YES agar plates containing terbinafine. […] Therefore, the genes erg1 and pmm1 within the red boxes were verified as being targets of terbinafine."}, "[2]": {"test_system": "pmm1 heterozygous deletion mutant", "assay": "Reconfirmation of GeneChip result on YES agar plates containing terbinafine", "assay_type": "cell-based, Schizosaccharomyces pombe", "procedure": "as §1"}, "[3]": {"test_system": "smb1 heterozygous deletion mutant", "assay": "Reconfirmation of GeneChip result on YES agar plates containing terbinafine", "assay_type": "cell-based, Schizosaccharomyces pombe", "procedure": "as §1"}, "Wild-type SP286 strain": {"test_system": "Wild-type SP286 strain", "assay": "IC50 measurement of growth inhibition in YES broth (final O.D600, Prism)", "assay_type": "cell-based", "details": "Schizosaccharomyces pombe, 30° C., 24 hours, read-out: IC50 (drug-induced inhibition against cell growth)", "procedure": "In order to determine the concentration of the chemical for the treatment, 50% inhibitory concentration (IC50) was first measured. Wild-type SP286 strain was grown to O.D600=2.0 in YES broth and inoculated with from 5- to 10-fold serial dilutions of the chemical to O.D600=0.1, followed by incubation at 30° C. for 24 hours. At each concentration of the chemical, the cultures were measured for final O.D600 values which were then plotted against Log [Chemical Concentration]. On the basis of these plots, IC50 values were automatically calculated using Prism Software (version 3.0, GraphPad Software Inc., San Diego, Calif.). Scientific experience made it possible to determine the concentrations of the chemical at around the appropriate IC50 values.\nIn order to screen terbinafine's modes of action with the GeneChip, first, the treatment concentrations of drug were determined by the measurements of IC50 obtained in the above-mentioned method. In this regard, relative rates of drug-induced inhibition against cell growth were obtained by treating the cells with terbinafine at doses of 0.1 nM, 1 nM, 5 nM, 10 nM, 50 nM, 100 nM, 500 nM and […]. Analysis with Prism software determined IC50=40 nM (FIG. 11)."}}, "data": [{"smiles": "CN(C/C=C/C#CC(C)(C)C)Cc1cccc2ccccc12", "note": "[terbinafine]", "values": [{"measurement": "plate reconfirmation of GeneChip-based mode of action, erg1", "setting": "[1]", "value": "same results as in the chip"}, {"measurement": "plate reconfirmation of GeneChip-based mode of action, pmm1", "setting": "[2]", "value": "same results as in the chip"}, {"measurement": "plate reconfirmation of GeneChip-based mode of action, smb1", "setting": "[3]", "value": "difference from the chip result"}, {"measurement": "IC50", "setting": "Wild-type SP286 strain", "value": 0.04, "unit": "µM"}]}]}
